Experiments:
Assay type in all cases: cell-based
T-type Ca channel (α1G) [1] = target: T1, T-type Ca channel (α1G) (Homo sapiens, UniProt O43497); test: Effect on T-type Ca channel expressed in BHK cells (whole cell patch clamp), Pharmacological Test Example 1; settings: BHK cells expressing T-type Ca channel (α1G), depolarization pulse −20 mV from −80 mV, 5 minutes after application, average value vs vehicle control (100%), read-out: Inhibition (%) of Ca current
T1 construct: expressed in transfected cells; host or cells: BHK (baby hamster kidney) cells
T1 sequence (O43497 whole entry): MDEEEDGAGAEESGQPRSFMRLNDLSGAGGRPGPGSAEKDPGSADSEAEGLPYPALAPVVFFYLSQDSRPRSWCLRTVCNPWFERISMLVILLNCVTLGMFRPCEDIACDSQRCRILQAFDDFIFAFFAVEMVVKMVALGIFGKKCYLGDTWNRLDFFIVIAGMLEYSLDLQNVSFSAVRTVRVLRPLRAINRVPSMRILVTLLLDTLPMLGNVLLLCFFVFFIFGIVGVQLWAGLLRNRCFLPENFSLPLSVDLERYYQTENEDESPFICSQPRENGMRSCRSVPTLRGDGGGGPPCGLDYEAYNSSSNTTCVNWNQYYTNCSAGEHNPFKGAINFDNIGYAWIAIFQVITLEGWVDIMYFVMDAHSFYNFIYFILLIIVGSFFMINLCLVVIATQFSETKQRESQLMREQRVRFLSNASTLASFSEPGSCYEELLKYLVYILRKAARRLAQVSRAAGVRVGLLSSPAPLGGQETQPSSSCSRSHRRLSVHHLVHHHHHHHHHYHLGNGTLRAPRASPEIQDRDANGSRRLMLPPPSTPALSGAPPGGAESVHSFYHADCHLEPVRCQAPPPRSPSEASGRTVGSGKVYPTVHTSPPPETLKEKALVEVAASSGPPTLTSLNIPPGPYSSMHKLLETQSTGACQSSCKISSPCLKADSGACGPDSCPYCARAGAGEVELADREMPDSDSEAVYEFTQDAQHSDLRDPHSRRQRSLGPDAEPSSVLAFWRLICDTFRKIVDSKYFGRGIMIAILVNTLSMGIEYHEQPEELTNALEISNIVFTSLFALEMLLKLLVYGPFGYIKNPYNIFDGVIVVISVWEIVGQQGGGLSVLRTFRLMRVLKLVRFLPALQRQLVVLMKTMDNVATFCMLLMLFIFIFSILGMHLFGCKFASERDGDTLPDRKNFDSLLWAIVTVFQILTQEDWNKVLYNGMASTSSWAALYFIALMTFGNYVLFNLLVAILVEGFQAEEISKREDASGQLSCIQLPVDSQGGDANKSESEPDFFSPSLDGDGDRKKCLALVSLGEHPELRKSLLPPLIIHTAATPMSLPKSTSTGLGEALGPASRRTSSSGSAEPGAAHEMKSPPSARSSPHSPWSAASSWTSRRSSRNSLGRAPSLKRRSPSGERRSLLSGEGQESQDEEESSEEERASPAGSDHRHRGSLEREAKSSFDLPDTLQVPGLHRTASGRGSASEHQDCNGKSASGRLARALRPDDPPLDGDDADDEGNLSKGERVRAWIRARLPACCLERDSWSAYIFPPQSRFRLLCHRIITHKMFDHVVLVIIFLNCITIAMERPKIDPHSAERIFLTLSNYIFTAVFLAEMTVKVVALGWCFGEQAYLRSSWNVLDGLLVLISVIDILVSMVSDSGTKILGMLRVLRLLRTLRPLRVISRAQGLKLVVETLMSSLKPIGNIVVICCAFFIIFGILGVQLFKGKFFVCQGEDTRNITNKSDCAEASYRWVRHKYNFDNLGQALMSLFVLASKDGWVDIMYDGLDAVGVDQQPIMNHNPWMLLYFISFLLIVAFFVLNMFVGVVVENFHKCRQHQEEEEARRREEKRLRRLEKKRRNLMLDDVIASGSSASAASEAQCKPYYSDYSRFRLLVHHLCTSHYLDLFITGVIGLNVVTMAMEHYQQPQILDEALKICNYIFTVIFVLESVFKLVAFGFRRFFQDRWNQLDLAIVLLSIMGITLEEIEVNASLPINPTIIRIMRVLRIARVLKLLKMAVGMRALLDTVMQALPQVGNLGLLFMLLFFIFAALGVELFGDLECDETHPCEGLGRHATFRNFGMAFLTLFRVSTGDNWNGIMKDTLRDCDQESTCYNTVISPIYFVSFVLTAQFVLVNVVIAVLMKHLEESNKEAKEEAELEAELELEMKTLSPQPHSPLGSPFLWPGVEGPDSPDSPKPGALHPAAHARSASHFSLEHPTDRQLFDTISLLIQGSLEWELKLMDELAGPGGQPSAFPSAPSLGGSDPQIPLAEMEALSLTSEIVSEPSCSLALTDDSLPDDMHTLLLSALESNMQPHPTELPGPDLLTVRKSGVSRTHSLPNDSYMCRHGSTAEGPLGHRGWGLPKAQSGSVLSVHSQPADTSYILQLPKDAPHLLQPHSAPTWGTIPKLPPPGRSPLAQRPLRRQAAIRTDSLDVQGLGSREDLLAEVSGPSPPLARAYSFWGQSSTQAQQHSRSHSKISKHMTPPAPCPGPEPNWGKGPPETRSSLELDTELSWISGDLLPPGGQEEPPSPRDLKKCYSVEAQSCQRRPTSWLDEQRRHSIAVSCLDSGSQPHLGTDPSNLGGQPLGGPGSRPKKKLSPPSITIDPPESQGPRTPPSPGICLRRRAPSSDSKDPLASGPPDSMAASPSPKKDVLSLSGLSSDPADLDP
Method: Effect on T-Type Ca Channel Expressed in Mammalian Cells (BHK Cells)
(§1) An electrophysiological evaluation was carried out by use of BHK (baby hamster kidney) cells in which T-type Ca channel (α1G) was expressed according to the method of Wakamori M et al. (Wakamori M et al.: J Biol Chem 273, 34857-34867, 1998) based on the whole cell patch clamp method. Each Ca-ion current was measured through a patch clamp amplifier as an inward current when depolarization pulse (−20 mV) was applied to cells maintained at a membrane potential of −80 mV. Each compound was dissolved in extracellular solution and applied with perfusion. At 5 minutes after the application, any variation in Ca-ion current was measured. The results are shown in Table 1 as Ca current inhibition (%, average value) of the compound of the present invention to Ca current (100%) in vehicle control.

T-type Ca channel (α1G) [2] = target: T1, T-type Ca channel (α1G); test: Effect on T-type Ca channel expressed in BHK cells (whole cell patch clamp), Pharmacological Test Example 2; settings: BHK cells expressing T-type Ca channel (α1G), depolarization pulse −20 mV from −80 mV, 5 minutes after application, average value vs vehicle control (100%), read-out: Inhibition (%) of Ca current, T-type
Method: (§2) Effect on L-Type and T-Type Ca Channel Expressed in Mammalian Cells (BHK Cells)
as §1, with “which L-type Ca channel or” for “which”, “pulse (10 mV in L-type Ca channel, −20 mV in T-type Ca channel)” for “pulse (−20 mV)”, “mV. Compound (9)” for “mV. Each compound”, “Table 2” for “Table 1”

L-type Ca channel = test: Effect on L-type Ca channel expressed in BHK cells (whole cell patch clamp), Pharmacological Test Example 2; settings: 10 μM; BHK cells expressing L-type Ca channel; depolarization pulse 10 mV from −80 mV; 5 minutes after application; average value vs vehicle control (100%)
Method: as §2
as §1, with “which L-type Ca channel or” for “which”, “pulse (10 mV in L-type Ca channel, −20 mV in T-type Ca channel)” for “pulse (−20 mV)”, “mV. Compound (9)” for “mV. Each compound”, “Table 2” for “Table 1”

SMILES | inhibition at 10 µM (T-type Ca channel (α1G) [1]) [%] | inhibition at 10 µM (T-type Ca channel (α1G) [2]) [%] | Inhibition (%) of Ca current, L-type (L-type Ca channel) [%]
Cc1nc(C)c(P2(=O)OCC(C)(C)CO2)c(-c2cccc([N+](=O)[O-])c2)c1C(=O)OCCN(Cc1ccccc1)c1ccccc1 [Compound (4)] | 23.9 | – | –
Cc1nc(C)c(P2(=O)OCC(C)(C)CO2)c(-c2cccc([N+](=O)[O-])c2)c1C(=O)OCCNc1ccccc1 [Compound (5)] | 53.9 | – | –
Cc1nc(C)c(P2(=O)OCC(C)(C)CO2)c(-c2cccc([N+](=O)[O-])c2)c1C(=O)OCCN1CCN(C(c2ccccc2)c2ccccc2)CC1 [Compound (6)] | 43.6 | – | –
COC(=O)c1c(C)nc(C)c(C(=O)OC2CCCN(Cc3ccccc3)C2)c1-c1cccc([N+](=O)[O-])c1 (stereo not shown) [Compound (7)] | 45.8 | – | –
COC(=O)C1=C(C)N(C)C(C)=C(C(=O)OC2CCCN(Cc3ccccc3)C2)C1c1cccc([N+](=O)[O-])c1 (stereo not shown) [Compound (8)] | 30 | – | –
CC1=C(C(=O)OCCN(Cc2ccccc2)c2ccccc2)C(c2cccc([N+](=O)[O-])c2)C(P2(=O)OCC(C)(C)CO2)=C(C)N1CCN1CCOCC1 (stereo not shown) [Compound (9)] | – | 48.9 | 9.9
